Values joined by “and” are separate entries in the source; they are usually repeats but may differ in a detail not shown here. Equal values may be shown once.
How the values were obtained:
[1] = test system: acute attacks of vertigo in patients with Menière's disease; experiment: Observational study: high-dosage betahistine monotherapy versus lower-dosage betahistine plus selegiline; format: in vivo, human
Description: Betahistine dihydrochloride tablets were obtained from Abbott (Vasomotol 24 mg tablets). Selegiline hydrochloride tablets were obtained from Hexal.
Studies by the Applicant investigated the benefits of a high-dosage betahistine monotherapy compared with those of a lower dosage of betahistine in combination with the MAO B inhibitor (MAO-B) selegiline on the frequency of acute attacks of vertigo in patients with Menière's disease (MD).
More specifically, studies investigated the effect of combination therapy in 13 subjects receiving 5 mg per day selegiline hydrochloride (either as one tablet at night, or half a tablet in the morning and half a tablet at night), in conjunction with varying amounts of betahistine dihydrochloride per day (amounts ranging from n=3 to 36, where n is the number of 24 mg tablets per day). All subjects had previously received treatment with betahistine dihydrochloride monotherapy (in amounts ranging from n=9 to 80, where n is the number of 24 mg tablets per day), and the number of vertigo attacks per month were recorded during a three month period of monotherapy prior to commencement of combination treatment. Following combination treatment, the subjects then recorded the number of vertigo attacks per month during the last two months of combination treatment.
The 13 patients in this observational study fulfilled the current diagnostic criteria of MD [48]. Patients with the diagnosis of other peripheral or central vestibular disorders, such as vestibular migraine, benign paroxysmal positional vertigo, paroxysmal brainstem attacks, or functional dizziness, were not included. Patients suffering from known contraindications or hypersensitivity to betahistine, such as bronchial asthma, pheochromocytoma, or treatment with other antihistaminic drugs, ulcer of the stomach or duodendum, or severe dysfunction of liver or kidney were also not treated with betahistine. Patients with known contraindications (e.g., use of meperidine or other opioids, tricyclic antidepressants or non-selective MAOls, selective serotonin re-uptake inhibitors) or hypersensitivity to selegiline were not treated with this agent.
Based on the results of the BEMED trial (showing that betahistine 48 mg tid is evidently not effective) the study initially started with a dosage of 96 mg tid in all patients. During the three- to six-monthly follow-up examinations the daily dosages were adjusted according to the patient's response (approach: “titration” of attacks of vertigo). Patients had been treated for at least 18 months with high dosages of betahistine-dihydrochloride and had ≤1 attacks for at least three months. An initial dosage of 5 mg/day selegiline hydrochloride was chosen (approved dosage for Parkinson's disease is 5 to 10 mg/d). In parallel the dosage of betahistine was reduced to about a tenth of the initial dosage. The design of the observational study was approved by the local ethics committee. Follow-up examinations were after 1 month and then every 3 months to check the efficacy of the treatment and the side-effects and to adjust the betahistine dosage if necessary. Ideally, the objective was to achieve ≤1 attack per three months.

[2] = cited from earlier work
[3] = test system: vertigo episodes related to Menière's disease; details: daily doses 2×24 mg or 3×48 mg; nine months; cited from earlier work

## CNCCc1ccccn1 [betahistine, 2-[2-(methylamino)ethyl]pyridine]
[1]; 13 patients
  daily betahistine-dihydrochloride dosage required to achieve a treatment response, mean: 895.4 mg/day
  daily betahistine-dihydrochloride dosage required to achieve a treatment response, mean in tablets: 37.3 24-mg tablets per day
[1]; 13 patients, per day
  mean daily dosage of betahistine-dihydrochloride to respond to treatment (≤1 attack per three months), FIG. 1: 895.4 mg
[1]; 216 to 1920 mg per day
  tolerability: well tolerated
[1]; 216 to 1920 mg per day, 13 patients
  patients with fullness of the stomach: 4 patients
[1]; individual patients 1-13 with Menière's disease, tablets per day
  Dosage of betahistine (monotherapy) required that the patient had a significant effect before the combined treatment: 80 n of 24-mg tablets and 30 n of 24-mg tablets (3×) and 9 n of 24-mg tablets and 36 n of 24-mg tablets and 60 n of 24-mg tablets (2×) and 24 n of 24-mg tablets and 18 n of 24-mg tablets (2×) and 50 n of 24-mg tablets and 40 n of 24-mg tablets
[2]; betahistine without MAO inhibitor
  plasma concentrations: less than 0.5 ng/ml
[2]; normally almost complete
  first-pass effect: 99%
[3]
  effect on time course of vertigo episodes compared with placebo: does not change the time course of vertigo episodes
